Results published in patent US7550459B2, “Tetrahydroquinoline analogues as muscarinic agonists” (Acadia Pharmaceuticals, Inc., priority 2001, dated 2009).
Read-outs that look alike come from different tables or passages of the source.

Columns and labels:
M1 muscarinic receptor = molecular target: T1, M1 muscarinic receptor (Homo sapiens, UniProt P11229); test: Receptor Selection and Amplification (R-SAT) assay, cloned M1 receptor; format: cell-based; parameters: M1 Eff: scale not given here; settings: for Emax: read-out: m1 % Efficacy
T1 construct: expressed in transfected cells
T1 sequence (P11229 1-460): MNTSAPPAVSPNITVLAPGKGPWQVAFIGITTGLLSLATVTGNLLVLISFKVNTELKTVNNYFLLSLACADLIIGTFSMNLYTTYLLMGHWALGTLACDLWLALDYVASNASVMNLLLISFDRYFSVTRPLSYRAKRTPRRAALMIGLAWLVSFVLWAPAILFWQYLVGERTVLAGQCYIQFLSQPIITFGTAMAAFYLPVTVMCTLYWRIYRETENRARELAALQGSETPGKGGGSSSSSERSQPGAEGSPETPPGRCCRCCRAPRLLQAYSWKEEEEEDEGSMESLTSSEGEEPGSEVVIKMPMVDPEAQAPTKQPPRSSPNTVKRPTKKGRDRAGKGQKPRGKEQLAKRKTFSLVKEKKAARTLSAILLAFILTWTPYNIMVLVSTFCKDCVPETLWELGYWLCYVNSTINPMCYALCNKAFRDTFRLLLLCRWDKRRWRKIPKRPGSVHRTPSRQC
Description: (§1) The EC50 for an agonist is intended to denote the concentration of a compound needed to achieve 50% of a maximal response seen in an in vitro assay such as R-SAT. For inverse agonists, EC50 is intended to denote the concentration of a compound needed to achieve 50% inhibition of an R-SAT response from basal, no compound, levels.
(§2) A particularly convenient functional assay system is the receptor selection and amplification assay (R-SAT assay) in U.S. Pat. No. 5,707,798, which describes a method of screening for bioactive compounds by utilizing the ability of cells transfected with receptor DNA, e.g., coding for the different muscarinic subtypes, to amplify in the presence of a ligand of the receptor. Cell amplification is detected as increased levels of a marker also expressed by the cells.
(§3) Receptor Selection and Amplification (R-SAT) assays were carried out using the cloned M1-M5 receptors essentially as described in: Brauner-Osborne H, Brann M R. Pharmacology of muscarinic acetylcholine receptor subtypes (m1-m5): high throughput assays in mammalian cells. Eur J Pharmacol Jan. 4, 1996;295(1):93-102, and Spalding T A, Trotter C, Skjaerbaek N, Messier T L, Currier E A, Burstein E S, Li D, Hacksell U, Brann M R. Discovery of an ectopic activation site on the M(1) muscarinic receptor. Mol Pharmacol. 2002 June;61(6):1297-302.

M2 muscarinic receptor = molecular target: T2, M2 muscarinic receptor (Homo sapiens, UniProt P08172); test: Receptor Selection and Amplification (R-SAT) assay, cloned M2 receptor; format: cell-based; parameters: M2 Eff: scale not given here
T2 construct: expressed in transfected cells
T2 sequence (P08172 1-466): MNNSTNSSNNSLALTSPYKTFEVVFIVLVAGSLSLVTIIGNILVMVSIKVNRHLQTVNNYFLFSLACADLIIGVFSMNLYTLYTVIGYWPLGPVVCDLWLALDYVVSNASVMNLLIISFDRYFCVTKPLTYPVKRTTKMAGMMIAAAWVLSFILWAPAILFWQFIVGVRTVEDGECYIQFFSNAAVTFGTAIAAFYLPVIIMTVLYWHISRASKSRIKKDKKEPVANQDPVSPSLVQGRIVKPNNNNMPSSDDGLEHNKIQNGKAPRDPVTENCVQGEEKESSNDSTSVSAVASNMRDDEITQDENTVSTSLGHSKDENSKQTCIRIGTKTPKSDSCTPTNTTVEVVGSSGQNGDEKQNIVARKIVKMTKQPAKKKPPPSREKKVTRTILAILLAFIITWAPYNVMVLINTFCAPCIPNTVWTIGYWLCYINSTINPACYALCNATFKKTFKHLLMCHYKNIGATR
Description: as §1, §2, §3

[1] = m1 pEC50, R-SAT, cloned m1 receptor
[2] = M1 pEC50, R-SAT, second table (COMPOUND ID series)
[3] = R-SAT, second table (COMPOUND ID series)
[4] = M2 pEC50, R-SAT, second table (COMPOUND ID series)
[5] = R-SAT, cloned m1 receptor, read-out: m1 pEC50 (converted)
[6] = R-SAT, second table (COMPOUND ID series), read-out: M1 pEC50 (converted)
[7] = R-SAT, second table (COMPOUND ID series), read-out: M2 pEC50 (converted)

EC50 (M1 muscarinic receptor; [6]) | Compound | EC50 (M1 muscarinic receptor; [2]) | M1 Eff (M1 muscarinic receptor; [3]) | M2 Eff (M2 muscarinic receptor; [3]) | further results
 | CCCC=C1CC2CCC(C1)N2CCCN1C(=O)COc2ccccc21 [Compound 81MF24, 4-[3-(3-Butylidene-8-aza-bicyclo[3.2.1]oct-8-yl)-propyl]-4H-benzo[1,4]oxazin-3-one] |  |  |  | EC50 (M1 muscarinic receptor; [1]): 15.8 nM; Emax (M1 muscarinic receptor): 96%; EC50 (M2 muscarinic receptor; m2 pEC50, R-SAT, cloned m2 receptor): 100 nM; Emax (M2 muscarinic receptor; read-out: m2 % Efficacy): 70%
 | O=C1COc2cc(F)ccc2N1CCCN1[C@@H]2CC[C@H]1C[C@@H](OCC1CC1)C2 [Compound 00262571, 4-[3-(3a-Cyclopropylmethoxy-8-azabicyclo[3.2.1]oct-8-yl)propyl]-7-fluoro-4H-benzo[1.4]oxazin-3-one] | 12.6 nM | 81 | 45 | EC50 (M2 muscarinic receptor; [4]): 39.8 nM
 | CCOCCC1CC2CCC(C1)N2CC(C)CN1C(=O)COc2ccccc21 (single isomer, unassigned) [Compound 00262998] | 7.94 nM | 102 | 56 | EC50 (M2 muscarinic receptor; [4]): 398 nM
 | CCCCC1CCN(CCCN2C(=O)CCc3c2ccc(F)c3C)CC1 [Compound 107LH95-1, 1-[3-(4-Butyl-piperidin-1-yl)propyl]-6-fluoro-5-methyl-3,4-dihydro-1H-quinolin-2-one] |  |  |  | Emax (M1 muscarinic receptor; R-SAT, cloned m1 receptor): 103%; EC50 (M1 muscarinic receptor; [5]): 25.1 nM
50.1 nM | O=C1CCc2cc(F)c(F)cc2N1CCCN1CCC(OCC2CC2)CC1 [Compound 00262272, 1-[3-(4-Cyclopropylmethoxypiperidin-1-yl)propyl]-6,7-difluoro-3,4-dihydro-1H-quinolin-2-one] |  | 94 | 57 | EC50 (M2 muscarinic receptor; [7]): 1000 nM
 | O=C1CCc2cc(F)c(F)cc2N1CCCN1[C@@H]2CC[C@H]1C[C@@H](OCC1CC1)C2 [Compound 00262572, 1-[3-(3a-Cyclopropylmethoxy-8-aza-bicyclo[3.2.1]oct-8-yl)propyl]-6,7-difluoro-3,4-dihydro-1H-quinolin-2-one] | 10 nM | 82 | 31 | EC50 (M2 muscarinic receptor; [4]): 200 nM
 | CCCCC1CCN(CCCN2C(=O)COc3ccc(C(C)=O)cc32)CC1 [Compound 64LHY89-5, 6-Acetyl-4-[3-(4-butyl-piperidin-1-yl)-propyl]-4H-benzo[1,4]oxazin-3-one] |  |  |  | Emax (M1 muscarinic receptor; R-SAT, cloned m1 receptor): 45%; EC50 (M1 muscarinic receptor; [5]): 2510 nM
 | CCCCC1CCN(CCCN2CCCc3ccc(C(F)(F)F)cc32)CC1 [Compound 55LH54, 1-[3-(4-Butyl-piperidin-1-yl)-propyl]-7-trifluoromethyl-12.3.4-tetrahydro-quinoline] |  |  |  | Emax (M1 muscarinic receptor; R-SAT, cloned m1 receptor): 57%; EC50 (M1 muscarinic receptor; [5]): 398 nM
 | CCCCCC1CC2CC[C@@H](C1)N2C[C@@H](C)CN1C(=O)COc2cc(F)ccc21 (stereo partly drawn) [Compound 112KK20-c5, (R,S)-7-Fluoro-4-[2-methyl-3-(3-pentyl-8-azabicyclo[3.2.1]oct-8-yl)propyl]-4H-benzo[1,4]oxazin-3-one] |  |  |  | EC50 (M1 muscarinic receptor; [1]): 5.01 nM; Emax (M1 muscarinic receptor): 117%
 | CCOCCC1CC2CCC(C1)N2CC(C)CN1C(=O)COc2ccccc21 (single isomer, unassigned) [Compound 00262993] | 79.4 nM | 55 |  | 
 | CCOCC[C@@H]1C[C@H]2CC[C@@H](C1)N2C[C@H](C)CN1C(=O)COc2ccccc21 [Compound 00263034, (S)-4-{3-[3β-(2-Ethoxyethyl)-8-azabicyclo[3.2.1]oct-8-yl]-2-methylpropyl}-4H-benzo[1.4]oxazin-3-one] | 158 nM | 68 |  | 
79.4 nM | O=C1COc2ccccc2N1CCCN1CCC(OCC2CC2)CC1 [Compound 00262922, 4-[3-(4-Cyclopropylmethoxypiperidin-1-yl)propyl]-4H-benzo[1.4]oxazin-3-one] |  | 84 | 40 | EC50 (M2 muscarinic receptor; [7]): 1260 nM
3980 nM | CC(CN1CCC(OC(=O)OCC2CCC2)CC1)CN1C(=O)COc2ccccc21 (racemic) [Compound 00262198, carbonic acid cyclobutylmethyl ester 1-[(R,S)-2-methyl-3-(3-oxo-2,3-dihydrobenzo[1.4]oxazin-4-yl)propyl]piperidine-4-yl ester] |  | 48 |  | 
631 nM | O=C1COc2ccc(F)c(F)c2N1CCCN1CCC(OCC2CC2)CC1 [Compound 00262696, 4-[3-(4-Cyclopropylmethoxypiperidin-1-yl)propyl]-5,6-difluoro-4H-benzo[1,4]oxazin-3-one] |  | 83 |  | 
79.4 nM | CCc1cccc2c1OCC(=O)N2CC(C)CN1CCC(OCC2CC2)CC1 (racemic) [Compound 00262867, (R,S)-4-[3-(4-Cyclopropylmethoxypiperidin-1-yl)-2-methylpropyl]-8-ethyl-4H-benzo[1,4]oxazin-3-one] |  | 104 | 32 | EC50 (M2 muscarinic receptor; [7]): 1580 nM
 | O=C1CCc2cc(F)c(F)cc2N1CCCN1C2CCC1CC(=CCOCC1CC1)C2 [Compound 00262356, 1-{3-[3-(2-Cyclopropylmethoxyethylidene)-8-azabicyclo[3.2.1]oct-8-yl]-propyl}-6,7-difluoro-3,4-dihydro-1H-quinolin-2-one] | 31.6 nM | 46 |  | 
 | CC(CN1C(=O)COc2ccccc21)CN1C2CCC1CC(=CCOCC1CC1)C2 [Compound 00262357, 4-{(R,S)-3-[3-(2-Cyclopropylmethoxyethylidene)-8-aza-bicyclo[3.2.1]oct-8-yl]-2-methylpropyl}-4H-benzo[1.4]oxazin-3-one] | 12.6 nM | 79 |  | 
50.1 nM | O=C1COc2cc(F)c(F)cc2N1CCCN1CCC(OCC2CC2)CC1 [Compound 00262461, 4-[3-(4-Cyclopropylmethoxypiperidin-1-yl)propyl]-6,7-difluoro-4H-benzo[1.4]oxazin-3-one] |  | 95 | 61 | EC50 (M2 muscarinic receptor; [7]): 631 nM
794 nM | O=C1COc2cc(F)cc(F)c2N1CCCN1CCC(OCC2CC2)CC1 [Compound 00262471, 4-[3-(4-Cyclopropylmethoxypiperidin-1-yl)propyl]-5,7-difluoro-4H-benzo[1,4]oxazin-3-one] |  | 86 |  | 
 | CCCC=C1CCN(C[C@@H](C)CN2C(=O)COc3ccc(OC)cc32)CC1 (racemic) [Compound 107LH74-3D, (R,S)-4-[3-(4-Butylidenepiperidin-1-yl)-2-methylpropyl]-6-methoxy-4H-benzo[1,4]oxazin-3-one] |  |  |  | m1 % Efficacy (M1 muscarinic receptor; R-SAT, cloned m1 receptor): 97%; m1 pEC50 (M1 muscarinic receptor; R-SAT, cloned m1 receptor): 8.0
631 nM | O=C1COc2c(F)cc(F)cc2N1CCCN1CCC(OCC2CC2)CC1 [Compound 00262874] |  | 87 |  | 
1580 nM | O=C1COc2c(F)ccc(F)c2N1CCCN1CCC(OCC2CC2)CC1 [Compound 00262869, 4-[3-(4-Cyclopropylmethoxypiperidin-1-yl)propyl]-5,8-difluoro-4H-benzo[1,4]oxazin-3-one] |  | 32 |  | 
 | COCC[C@H]1C[C@H]2CC[C@@H](C1)N2C[C@H](C)CN1C(=O)COc2ccccc21 [Compound 00263035, (S)-4-{3-[3a-(2-Methoxyethyl)-8-azabicyclo[3.2.1]oct-8-yl]-2-methylpropyl}-4H-benzo[1.4]oxazin-3-one] | 251 nM | 97 |  | 

Compound | EC50 (M1 muscarinic receptor; [6]) | EC50 (M1 muscarinic receptor; [2]) | M1 Eff (M1 muscarinic receptor; [3]) | M2 Eff (M2 muscarinic receptor; [3]) | further results
C[C@@H](CN1C(=O)COc2ccccc21)CN1[C@@H]2CC[C@H]1CC(=NOCC1CC1)C2 (mixture of isomers) [Compound 00261537, 4-[3-(3-Cyclopropylmethoxyimino-8-aza-bicyclo[3.2.1]oct-8-yl)-2(R)-methyl-propyl]-4H-benzo[1,4]oxazin-3-one] | 126 nM |  | 126 | 58 | EC50 (M2 muscarinic receptor; [7]): 794 nM
